Columns and labels:
[1] = test system: reverse passive Arthus reaction (blueing by antigen and antibody); assay: Reverse Passive Arthus Reaction (RPA); type: in vivo, Male SD rats; conditions: rat
Protocol: Male SD rats weighing between 200 and 300 g were used. Test compounds were dissolved in dimethyl sulfoxide and 1 ml/kg of this stock solution (100 mg/ml), on serial dilutions were injected intraperitoneally one hour before administration of the antigen or given orally. The animals were anesthetized inhalationally with isoflurane and then injected through the penile vein with 1 ml of a solution of 2.5 mg of Evan's blue dye and 5.0 mg of human serum albumin in 1 ml of saline. This treatment was followed immediately by intracutaneous injections of 0.075 ml of anti-human albumin diluated to contain 4.38 mg/ml of antibody at 2 sites opposite the midline back. Anesthesia was terminated and after three hours, the animals were sacrificed. The skin was removed and the blue stained areas cut out. The skin patches were soaked overnight in stoppered tubes containing 2 ml of 1N potassium hydroxide at 5° C. Then 9 ml of a mixture of five parts of a 1.2N phosphoric acid and thirteen parts of acetone were added to the tubes. The tube contents were agitated and centrifuged, and the absorbance measured at 620 nm. The data were calculated as inhibition of blueing by test compound compared to control animals receiving only antigen and antibody.

[2] = test system: plasma fibrinogen in arthritis model; assay: Adjuvant arthritis test: inhibition of adjuvant-elevated plasma fibrinogen in rats; type: in vivo, Male Sprague Dawley rats; conditions: rat
[3] = test system: ear edema caused by oxazolone; assay: Inhibition of Ear Edema Caused by Oxazolone; type: in vivo, CF-1 mice; conditions: mouse, 24 hours
Protocol: CF-1 mice, 25-30 g body weight, six animals per group were used. The mice were sensitized to the irritant two weeks prior to the test by dribbling 100 μL of a 3% solution of oxazolone in acetone onto the scrotum of the animal. Test compounds were administered orally at doses of 100 mg/kg and 300 mg/kg for 1 hour prior to oxazolone, intraperitoneally as follows: The test compound was dissolved in dimethyl sulfoxide and doses of 10 mg/kg, 30 mg/kg, and 100 mg/kg were injected 15 mintures prior to irritant. The irritant, 3% oxazolone in acetone, was added to the surface of the ear, 5 μL added to the upper surface and 5 μL added to the lower surface. After twenty four hours the thickness of the ear was measured to 0.01 mm by a micrometer with loose drag, positioned at the lateral-most edge of the mid-point of the pinna. Data were calculated as the inhibition of increased ear thickness compared to control animals' receiving only the irritant. In general, % inhibition of greater than 20% is statistically significant (p<0.05 or less, Student's t-test for unpaired data).

Structure (SMILES) | RPA (p.o.) 100 mg/kg inhibition [1] [%] | AA (i.p.) % inhibition at 100 mg/kg (inhibited plasma fibrinogen in arthritis model) ([2]; 100 mg/kg) [%] | AA (p.o.) % inhibition at 100 mg/kg (inhibited plasma fibrinogen in arthritis model) ([2]; 100 mg/kg) [%] | other results
O=C(Nc1ccc(C(=O)O)cc1)OCCC1c2ccccc2-c2ccccc21 [Example 7, N-[9H-(Fluorenyl-9-ethoxycarbonyl)]amino-4-benzoic acid] | 25 | 63 | 39 | Plasma fibrinogen level, drug by itself ([2]; 100 mg/kg p.o., n=5, without adjuvant, basal 2.44±0.08 mg/ml): 4.8 ± 0.6 mg/mL; Maximum inhibition of plasma fibrinogen ([2]; given orally, maximum achieved at 3 mg/kg): 50%; Inhibition of increased ear thickness ([3]; i.p., 10 mg/kg): 46%; Inhibition of increased ear thickness ([3]; i.p., 30 mg/kg): 82%; Inhibition of increased ear thickness ([3]; i.p., 100 mg/kg): 79%; Inhibition of increased ear thickness ([3]; orally, dose of this value not stated (100 and 300 mg/kg in method)): 50%
O=C(Nc1ccc(C(=O)O)cc1)SCCC1c2cc(Cl)ccc2-c2ccc(Cl)cc21 [Example 27] | – | 54 | 52 | –
O=C(Nc1ccc(C(=O)O)cc1)SCCC1c2ccccc2-c2ccccc21 [Example 26, N-[2-(9H-Fluoren-9-yl)ethylthioxycarbonyl]-4-aminobenzoic acid] | – | 70 | 56 | –
O=C(CCC1c2ccccc2-c2ccccc21)Nc1ccccc1C(=O)O [Example 14, N-[3-(9-Fluorenyl)propionyl]anthranilic acid] | – | – | – | Inhibition of plasma fibrinogen levels ([2]; 10 mg/kg): 22%; Inhibition of plasma fibrinogen levels ([2]; 30 mg/kg): 19%; Inhibition of plasma fibrinogen levels ([2]; 100 mg/kg): 51%
O=C(CCCC1c2ccccc2-c2ccccc21)Nc1ccc(C(=O)O)cc1 [Example 25, 4-[9H-(Fluoren-9-yl)]butyric acid-4-carboxyanilide] | 0 | – | 15 | –
Cc1ccc2c(c1)C(CCOC(=O)Nc1ccc(C(=O)O)cc1)c1cc(C)ccc1-2 [Example 8, N-[9H-(2,7-Dimethylfluorenyl-9-ethoxycarbonyl)]amino-4-benzoic acid] | 0 | 69 | 48 | –
O=C(Nc1ccc(C(=O)O)cc1)OCCC1c2cc(Cl)ccc2-c2ccc(Cl)cc21 [Example 9] | 54 | 78 | 38 | –
O=C(Nc1ccc(C(=O)O)cc1)SCCC1c2cc(Br)ccc2-c2ccc(Br)cc21 [Example 28] | 1 | 72 | 41 | –
O=C(Nc1ccc(C(=O)O)cc1)OCCCC1c2ccccc2-c2ccccc21 [Example 23, 4-[3-(9H-Fluoren-9-yl)propoxycarbonyl]-aminobenzoic acid] | 1 | – | – | –
